Data as given in ChEMBL document CHEMBL2016440, “Overcoming fluconazole resistance in Candida albicans clinical isolates with tetracyclic indoles” (Bioorg Med Chem Lett, 2012).
The source made the active and inactive calls. No cut-off for these calls is given here.

What was measured:
[1] = test system: Candida albicans; experiment: Antifungal activity against fluconazole-resistant Candida albicans isolate 2 assessed as growth inhibition after 48 hrs by alamar blue fluorescence assay in presence of 8 ug/ml fluconazole; format: functional, organism-based; conditions: isolate 2, 48 h
[2] = test system: Candida albicans; experiment: Antifungal activity against fluconazole-resistant Candida albicans isolate 8 assessed as growth inhibition after 48 hrs by alamar blue fluorescence assay in presence of 8 ug/ml fluconazole; format: functional, organism-based; conditions: isolate 8, 48 h
[3] = test system: NIH3T3; experiment: Cytotoxicity against mouse 3T3 cells; format: cell-based
[4] = test system: NIH3T3; experiment: Cytotoxicity against mouse 3T3 cells at 0.2 to 26 uM; format: cell-based; conditions: nih3t3, 26 µM
[5] = test system: Candida albicans; experiment: Antifungal activity against fluconazole-sensitive Candida albicans SC5314 assessed as growth inhibition at 1 ug/ml after 24 hrs by alamar blue fluorescence assay; format: functional, organism-based
[6] = test system: Candida albicans; experiment: Antifungal activity against fluconazole-sensitive Candida albicans SC5314 assessed as growth inhibition at 8 ug/ml after 24 hrs by alamar blue fluorescence assay; format: functional, organism-based
[7] = test system: Candida albicans; experiment: Antifungal activity against Candida albicans assessed as growth inhibition after 48 hrs by alamar blue fluorescence assay; format: functional, organism-based
[8] = test system: Candida albicans; experiment: Antifungal activity against fluconazole-sensitive Candida albicans SC5314 assessed as growth inhibition at 7.5 ug/ml after 24 hrs by alamar blue fluorescence assay; format: functional, organism-based
[9] = test system: Candida albicans; experiment: Antifungal activity against fluconazole-sensitive Candida albicans SC5314 assessed as growth inhibition at 7.5 ug/ml after 24 hrs by alamar blue fluorescence assay in presence of fluconazole; format: functional; conditions: SC5314, 24 h, read-out: GI

Structure (SMILES): Oc1c2nc3ccccc3c-2nc2n1CCS2
- IC50 [1]: > 10 µM
- IC50 [2]: 15.7 µM

Structure (SMILES): O=C(Cn1c2ccccc2c2nc3n(c(=O)c21)CCS3)N1CC=CC1
- IC50 [1]: 1.8 µM
- IC50 [2]: 3.1 µM

Structure (SMILES): CC1CCN(CCn2c3ccccc3c3nc4n(c(=O)c32)CCS4)CC1
- IC50 [1]: > 10 µM
- IC50 [2]: > 26 µM

Structure (SMILES): O=C(Cn1c2ccc(F)cc2c2nc3n(c(=O)c21)CCS3)N1CC=CC1
- IC50 [1]: 0.5 µM
- IC50 [2]: > 26 µM

Structure (SMILES): O=C(Cn1c2ccccc2c2nc3n(c(=O)c21)CCS3)NCCc1ccc(Cl)cc1
- IC50 [1]: > 10 µM
- IC50 [2]: 23.4 µM

Structure (SMILES): COC(=O)Cn1c2ccc(F)cc2c2nc3n(c(=O)c21)CCS3
- IC50 [1]: 3.5 µM
- IC50 [2]: 6 µM

Structure (SMILES): CC1(O)CN(C(=O)Cn2c3ccccc3c3nc4n(c(=O)c32)CCS4)C1
- IC50 [1]: > 10 µM
- IC50 [2]: > 26 µM

Structure (SMILES): COc1ccc2c(c1)c1nc3n(c(=O)c1n2CC(=O)N1CCC(C)CC1)CCS3
- IC50 [1]: > 26 µM
- IC50 [2]: > 26 µM

Structure (SMILES): O=C(Cn1c2ccccc2c2ccncc21)N1CCCCC1
- IC50 [1]: > 26 µM
- IC50 [2]: > 26 µM

Structure (SMILES): O=C(O)Cn1c2ccc(F)cc2c2nc3n(c(=O)c21)CCS3
- IC50 [1]: > 26 µM
- IC50 [2]: > 26 µM

Structure (SMILES): O=C(Cn1c2ccccc2c2nc3n(c(=O)c21)CCS3)N1CCC(F)(F)C1
- IC50 [1]: 5.9 µM
- IC50 [2]: 10.2 µM

Structure (SMILES): O=C(Cn1c2ccc(F)cc2c2nc3n(c(=O)c21)CCS3)N1CCC(F)(F)C1
- IC50 [1]: 1.1 µM
- IC50 [2]: 1.1 µM

Structure (SMILES): CC1CCN(C(=O)Cn2c3ccc(F)cc3c3nc4n(c(=O)c32)CCCS4)CC1
- IC50 [1]: 2.7 µM
- IC50 [2]: 11.7 µM

Structure (SMILES): O=C(Cn1c2ccccc2c2nc3n(c(=O)c21)CCS3)N1CCC(F)(F)CC1
- IC50 [1]: > 10 µM
- IC50 [2]: > 26 µM

Structure (SMILES): CC1CCN(C(=O)Cn2c3ccccc3c3nc4n(c(=O)c32)CCS4)CC1
- IC50 [1]: 3.2 µM
- IC50 [2]: 5.5 µM
- IC50 [3]: > 26 µM
- Activity [4]: Non-toxic

Structure (SMILES): O=C(Cn1c2ccc(F)cc2c2nc3n(c(=O)c21)CCS3)N1CCCCC1
- IC50 [1]: 0.5 µM
- IC50 [2]: > 26 µM

Structure (SMILES): O=C(Cn1c2ccc(F)cc2c2nc3n(c(=O)c21)CCS3)N1CCC(F)(F)CC1
- IC50 [1]: 0.7 µM
- IC50 [2]: > 26 µM

Structure (SMILES): O=C(Cn1c2ccc(F)cc2c2nc3n(c(=O)c21)CCS3)N1CCCCCC1
- IC50 [1]: 2.2 µM
- IC50 [2]: > 26 µM

Structure (SMILES): COc1ccc2c(c1)c1nc3n(c(=O)c1n2CC(=O)N1CCC(Cc2ccccc2)CC1)CCS3
- IC50 [1]: > 26 µM
- IC50 [2]: > 26 µM

Structure (SMILES): C[C@@H]1[C@H](O)[C@@H](C)/C=C/C=C/C=C/C=C/C=C/C=C/C=C/[C@H](O[C@@H]2O[C@H](C)[C@@H](O)[C@H](N)[C@@H]2O)C[C@@H]2O[C@](O)(C[C@@H](O)C[C@@H](O)[C@H](O)CC[C@@H](O)C[C@@H](O)CC(=O)O[C@H]1C)C[C@H](O)[C@H]2C(=O)O
- growth inhibition (GI) [5]: Active

Structure (SMILES): CCN(CC)C(=O)Cn1c2ccccc2c2nc3n(c(=O)c21)CCS3
- IC50 [1]: 2.3 µM
- IC50 [2]: > 26 µM

Structure (SMILES): Oc1c2nc3ccc(F)cc3c-2nc2n1CCS2
- IC50 [1]: 3.8 µM
- IC50 [2]: 7.1 µM

Structure (SMILES): O=C(O)Cn1c2ccccc2c2nc3n(c(=O)c21)CCS3
- IC50 [1]: > 10 µM
- IC50 [2]: > 26 µM

Structure (SMILES): O=C(Cn1c2ccc(F)cc2c2nc3n(c(=O)c21)CCS3)N1CCCC1
- IC50 [1]: 0.6 µM
- IC50 [2]: 18.9 µM

Structure (SMILES): OC(Cn1cncn1)(Cn1cncn1)c1ccc(F)cc1F
- growth inhibition (GI) [6]: inactive

Structure (SMILES): O=C(Cn1c2ccccc2c2nc3n(c(=O)c21)CCS3)N1CCOCC1
- IC50 [1]: 4.3 µM
- IC50 [2]: 6.6 µM

Structure (SMILES): CC1CCN(C(=O)Cn2c3ccccc3c3nc4n(c(=O)c32)CCCS4)CC1
- IC50 [1]: 12.1 µM
- IC50 [2]: 21.3 µM

Structure (SMILES): CN1CCN(C(=O)Cn2c3ccccc3c3nc4n(c(=O)c32)CCS4)CC1
- IC50 [1]: 7.1 µM
- IC50 [2]: 22.5 µM

Structure (SMILES): COc1ccc(NC(=O)Cn2c3ccccc3c3nc4n(c(=O)c32)CCS4)cc1
- IC50 [1]: > 10 µM
- IC50 [2]: > 26 µM

Structure (SMILES): O=C(Cn1c2ccccc2c2nc3n(c(=O)c21)CCS3)N1CCCCC1
- IC50 [1]: 1.9 µM
- IC50 [2]: 2.9 µM

Structure (SMILES): COC(=O)Cn1c2ccccc2c2nc3n(c(=O)c21)CCS3
- IC50 [1]: 7.9 µM
- IC50 [2]: 13.3 µM

Structure (SMILES): CCN(CC)C(=O)Cn1c2ccc(F)cc2c2nc3n(c(=O)c21)CCS3
- IC50 [1]: 0.5 µM
- IC50 [2]: > 26 µM

Structure (SMILES): O=C(Cn1c2ccccc2c2nc3n(c(=O)c21)CCS3)N1CCCC1
- IC50 [1]: 1.1 µM
- IC50 [2]: 1.9 µM
- IC50 [3]: > 26 µM
- IC50 [7]: > 26 µM
- growth inhibition (GI) [8]: inactive
- inhibition of growth at 7.5 µg/mL [9]: 96%
